Data taken from patent US11814376B2, “Hepatitis b core protein modulators” (Assembly Biosciences, Inc., priority 2015, dated 2023).

Tests used:
AD38 cells = assay: Viability of AD38 cells (Promega CellTiter-Glo); assay type: cell-based; details: 10 μM compound, 6 days, CellTiter-Glo luminescence normalized to DMSO control (100%)
Summary of the method: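 AD38 cells were seeded at 50,000/well on collagen-coated plates and treated with compound added as a 10× solution in 10% DMSO for 6 days at 37° C. Viability was measured by CellTiter-Glo luminescence in tetracycline-free medium with 2% FBS and 1% DMSO, and expressed as percent of DMSO control.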

[1] = tested on: HBV viral load in AD38 cells; assay: Viral load production in AD38 cells, quantitative PCR of the core sequence in supernatant; assay type: cell-based; details: Hepatitis B virus, 144 h, 10 μM compound, 6 days at 37° C., supernatant qPCR, relative to DMSO control; read-out: AD38 Viral Load (%) (VL with cmpd/VL in DMSO control) at 10 μM

Structure (SMILES)	AD38 Viability Normalized Result (cmpd/DMSO %) at 10 μM (AD38 cells) [%]	activity at 10 µM [1] [%]
O=C(NCc1cnc(-c2cccnc2)s1)c1ccc2c(c1)NC(=O)c1ccccc1S2(=O)=O [compound 1624]	98	0.8
O=C(NCc1nccs1)c1ccc2c(c1)NC(=O)c1ccccc1S2(=O)=O [compound 1650]	82	58.8
O=C(NCc1cnc(-c2ccc(OC[C@@H]3CCNC3)cc2)s1)c1ccc2c(c1)NC(=O)c1ccccc1S2(=O)=O [compound 11140, (R)-11-oxo-N-((2-(4-(pyrrolidin-3-ylmethoxy)phenyl)thiazol-5-yl)methyl)-10, 11-dihydrodibenzo [b, f] [1, 4] thiazepine-8-carboxamide 5,5-dioxide]	99	5.5
O=C(NCc1cnc(Cc2ccc(O)cc2)s1)c1ccc2c(c1)NC(=O)c1ccccc1O2 [compound 1835, N-((2-(4-hydroxybenzyl)thiazol-5-yl)methyl)-11-oxo-10, 11-dihydrodibenzo [b, f] [1, 4] oxazepine-8-carboxamide]	94	12.3
COc1ccc(-c2ncc(CNC(=O)c3ccc4c(c3)NC(=O)c3ccccc3S4(=O)=O)s2)nc1 [1879-A]	121	2.5
CC(C)(C)NCCCSc1ccc(-c2ncc(CNC(=O)c3ccc4c(c3)NC(=O)c3ccccc3S4(=O)=O)s2)cc1.O=C(O)C(F)(F)F [compound 11064, N-((2-(4-((3-(tert-butylamino)propyl)thio)phenyl)thiazol-5-yl)methyl)-11-oxo-10, 11-dihydrodibenzo [b, f] [1, 4] thiazepine-8-carboxamide 5,5-dioxide TFA salt]	85	4.1
O=C1Cc2cc(-c3ncc(CNC(=O)c4ccc5c(c4)NC(=O)c4ccccc4S5(=O)=O)s3)ccc2N1 [compound 1821]	102	0.5
O=C(NCc1cnc(C(F)(F)F)s1)c1ccc2c(c1)NC(=O)c1ccccc1S2(=O)=O [compound 1553]	107	0.5
CCN1c2ccc(C(=O)NCc3cnc(-c4ccc(C#N)cc4)s3)cc2NC(=O)c2ccccc21 [compound 1975]	63	1
O=C(NCc1cnc(C(F)(F)F)s1)c1ccc2c(c1)NC(=O)c1ccccc1[S+]2[O-] (stereo not shown) [compound 1772]	109	7.1
CN(C)CC1(COc2ccc(-c3ncc(CNC(=O)c4ccc5c(c4)NC(=O)c4ccccc4S5(=O)=O)s3)cc2)CC1 [compound 11112]	100	4
CN(C)CCCSc1ccc(-c2ncc(CNC(=O)c3ccc4c(c3)NC(=O)c3ccccc3S4(=O)=O)s2)cc1 [compound 11006, N-((2-(4-((3-(dimethylamino)propyl)thio)phenyl)thiazol-5-yl)methyl)-11-oxo-10, 11-dihydrodibenzo [b, f] [1, 4] thiazepine-8-carboxamide 5,5-dioxide]	97	1.3
O=C(NCc1cnc(-n2nccn2)s1)c1ccc2c(c1)NC(=O)c1ccccc1S2(=O)=O [compound 11048]	103	1.2
O=C(NCc1cnc(-c2ccc(F)cn2)s1)c1ccc2c(c1)NC(=O)c1ccccc1S2(=O)=O [compound 11040]	104	1.9
Cc1c(C(=O)NCc2cnc(C(F)(F)F)s2)ccc2c1NC(=O)c1ccccc1S2 [compound 1766]	98	1.3
O=C(NCc1cnc(OCCOC2CCCCO2)s1)c1ccc2c(c1)NC(=O)c1ccccc1O2 (stereo not shown) [1613-A, 11-oxo-N-((2-(2-((tetrahydro-2H-pyran-2-yl)oxy)ethoxy)thiazol-5-yl)methyl)-10, 11-dihydrodibenzo [b, f] [1, 4] oxazepine-8-carboxamide]	95	11.5
CC(=O)Nc1ccc(-c2ncc(CNC(=O)c3ccc4c(c3)NC(=O)c3ccccc3S4(=O)=O)s2)cc1 [compound 1932]	101	2.2
O=C(NCc1cnc(-c2ccc(O)c(Cl)c2)s1)c1ccc2c(c1)NC(=O)c1ccccc1S2(=O)=O [compound 1667]	93	0.5

Structure (SMILES)	AD38 Viability Normalized Result (cmpd/DMSO %) at 10 μM (AD38 cells) [%]	activity at 10 µM [1] [%]
CN(C)CCCOc1ccc(-c2ncc(CNC(=O)c3ccc4c(c3)NC(=O)c3ccccc3S4(=O)=O)s2)nc1 [compound 11011, N-((2-(5-(3-(dimethylamino)propoxy)pyridin-2-yl)thiazol-5-yl)methyl)-11-oxo-10, 11-dihydrodibenzo [b, f] [1, 4] thiazepine-8-carboxamide 5,5-dioxide]	98	5.3
O=C(NCc1cnc(-c2ccc(O)nc2)s1)c1ccc2c(c1)NC(=O)c1ccccc1S2(=O)=O [compound 1669, N-((2-(6-hydroxypyridin-3-yl)thiazol-5-yl)methyl)-11-oxo-10, 11-dihydrodibenzo [b, f] [1, 4] thiazepine-8-carboxamide 5,5-dioxide]	104	13.1
O=C(NCc1cnc(-c2ccc(O)cc2)s1)c1ccc2c(c1)NC(=O)c1ccccc1S2(=O)=O [compound 1595, N-((2-(4-hydroxyphenyl)thiazol-5-yl)methyl)-11-oxo-10, 11-dihydrodibenzo [b, f] [1, 4] thiazepine-8-carboxamide 5,5-dioxide]	109	0.3
COc1ccc(Cc2ncc(CNC(=O)c3ccc4c(c3)NC(=O)c3ccccc3O4)s2)cc1 [1835-A, N-((2-(4-methoxybenzyl)thiazol-5-yl)methyl)-11-oxo-10, 11-dihydrodibenzo [b, f] [1, 4] oxazepine-8-carboxamide]	89	0.3
Cc1cc2c(cc1C(=O)NCc1cnc(-c3ccc(O)cc3)s1)NC(=O)c1ccccc1S2 [compound 1758]	15	3.8
CN(C)CCCOc1ccc(-c2ncc(CNC(=O)c3ccc4c(c3)NC(=O)c3ccccc3O4)s2)cc1 [compound 1698]	91	2.7
N#Cc1ccc(-c2ncc(CNC(=O)c3ccc4c(c3)NC(=O)c3ccccc3O4)s2)cc1 [1770-A, N-((2-(4-cyanophenyl)thiazol-5-yl)methyl)-11-oxo-10, 11-dihydrodibenzo [b, f] [1, 4] oxazepine-8-carboxamide]	100	29.8
CN(C)CCOc1ccc(-c2ncc(CNC(=O)c3ccc4c(c3)NC(=O)c3ccccc3O4)s2)cc1 [compound 1621]	81	25.9
NS(=O)(=O)c1ccc(-c2ncc(CNC(=O)c3ccc4c(c3)NC(=O)c3ccccc3S4(=O)=O)s2)cc1 [compound 1856]	96	1.3
Cc1c(C(=O)NCc2cnc(-c3ccc(C#N)cc3)s2)ccc2c1NC(=O)c1ccccc1S2(=O)=O [compound 1877]	96	0.2
O=C(NCc1cnc(C(=O)c2ccccc2)s1)c1ccc2c(c1)NC(=O)c1ccccc1S2(=O)=O [compound 1929]	93	1.2
CS(=O)(=O)c1ccc(-c2ncc(CNC(=O)c3ccc4c(c3)NC(=O)c3ccccc3S4(=O)=O)s2)cc1 [compound 1855]	102	2.5
Cc1cc(-c2ncc(CNC(=O)c3ccc4c(c3)NC(=O)c3ccccc3S4(=O)=O)s2)ccc1O [compound 1804, N-((2-(4-hydroxy-3-methylphenyl)thiazol-5-yl)methyl)-11-oxo-10, 11-dihydrodibenzo [b, f] [1, 4] thiazepine-8-carboxamide 5,5-dioxide]	103	0.5
Cc1cc(-c2ncc(CNC(=O)c3ccc4c(c3)NC(=O)c3ccccc3S4(=O)=O)s2)cc(C)c1O [compound 1806, N-((2-(4-hydroxy-3,5-dimethylphenyl)thiazol-5-yl)methyl)-11-oxo-10, 11-dihydrodibenzo [b, f] [1, 4] thiazepine-8-carboxamide 5,5-dioxide]	105	0.8
CN(C)CCCS(=O)(=O)c1ccc(-c2ncc(CNC(=O)c3ccc4c(c3)NC(=O)c3ccccc3S4(=O)=O)s2)cc1.O=C(O)C(F)(F)F [compound 11033, N-((2-(4-((3-(dimethylamino)propyl)sulfonyl)phenyl)thiazol-5-yl)methyl)-11-oxo-10, 11-dihydrodibenzo [b, f] [1, 4] thiazepine-8-carboxamide 5,5-dioxide TFA salt]	95	17.1
Cl.O=C(NCc1cnc(-c2ccc(OC[C@H]3CCCN3)cc2)s1)c1ccc2c(c1)NC(=O)c1ccccc1S2(=O)=O [compound 11104, (R)-11-oxo-N-((2-(4-(pyrrolidin-2-ylmethoxy)phenyl)thiazol-5-yl)methyl)-10, 11-dihydrodibenzo [b, f] [1, 4] thiazepine-8-carboxamide 5,5-dioxide hydrochloride]	97	9.4
N#Cc1ncc(CNC(=O)c2ccc3c(c2)NC(=O)c2ccccc2S3)s1 [compound 1627]	63	6
